Laboratory results taken from patent US20200222418A1, “USE OF PHENOTHIAZINE DERIVATIVE IN THE TREATMENT OF INFECTION CAUSED BY BACTERIA CARRYING TYPE IV PILI” (priority 2017, published 2020).
“Also recorded” adds a separate entry of the source.

Assays:
[1] = system: Nm2C4.3 adhesion to human dermal microvascular endothelial cells (HDMECs); test: Adhesion of pretreated meningococci to endothelial cells; type: cell-based, Neisseria meningitidis; conditions: bacteria pre-treated with 30 μM for 30 minutes
Protocol: Nm2C4.3 grown in suspension were pretreated in the absence or in the presence of 30 μM Trifluoperazine for 30 minutes before adhesion to human dermal microvascular endothelial cells (HDMECs) for 30 minutes. Infection was allowed to proceed for further 30, 60 or 90 minutes before fixation and immunostaining using anti-Nm2C4.3 antibody and Alexa Fluor 633 Phalloidin. (A) Representative fluorescence microscopy showing bacterial colony (white dots) formed at the surface of the endothelial cells. (B) Quantification of the bacterial colonization was performed using Image J software.

[2] = system: HDMECs infected with Nm2C4.3; test: Cytoskeleton remodelling and cell junction integrity of infected HDMEC (immunofluorescence); type: cell-based, human; conditions: Gentamicin 150 μg/ml 1 h, Trifluoperazine 50 μM applied after gentamicin
Protocol: (A) Experimental procedure: HDMEC were infected for 2 h with Nm2C4.3, treated for 1 h with gentamicin (150 μg/ml) and then 15 min with Trifluoperazine (50 μM) (or solvent alone as a control) and left in medium for 1 h before fixation. (B) Upper panels: Representative fluorescence microscopy showing the effect on the endothelial cell cytoskeleton remodelling analysed by immunostaining of Ezrin and Actin. Lower panels: Effect on the endothelial cell junction integrity was analysed by immunostaining of Actin and VE-cadherin. (C) Quantification of the bacterial colonization (upper panel) Ezrin recruitment and cortical actin polymerization at sites of bacterial adhesion (lower panel) was performed using Image J software.
HDMECs were grown in their specific culture medium (Promocell #C-12210) and confluent monolayers were infected with 2C4.3. Briefly, bacteria were precultured in prewarmed cell culture medium for 1 h 30 min at 37° C. 5% CO2. The OD600 was adjusted to 0.1 and HDMECs were then overlaid with bacteria for 30 min (MOI of 100). Unbound bacteria were removed by three washes in cell culture media and infection was allowed to proceed for 1 h at 37° C. 5% CO2. Gentamicin was added at 150 μg/ml for 1 h, then after three washes in cell culture media, Trifluoperazine was applied where mentioned at 50 μM for 20 min. After three washes in cell culture media, cells were allowed to recover for 1 h in cell culture media. At the indicated time, cells were fixed with 4% Paraformaldehyde for 10 min. Immunolabelling was then performed as above described in example 4, using DAPI, Alexa Fluor 633 Phalloidin, Polyclonal antisera raised against Ezrin, obtained from Pr P. Mangeat (CRBM, Montpellier, France) and anti-human VE-Cadherin (eBioscience #BMS158).

[3] = system: Enteropathogenic Escherichia coli (EPEC ΔescN-GFP) microcolonies on HBMEC; test: Dispersion of EPEC microcolonies on HBMEC; type: cell-based; conditions: 10 to 50 μM, 30 min
Protocol: Human […] microvascular endothelial cells (HBMEC) were infected with a GFP-expressing mutant Enteropathogenic Escherichia coli, which lacks the ATPase escN (EPEC ΔescN-GFP) for 2 h, then treated with Trifluoperazine (10-50 μM) for 30 minutes, before fixation and immunofluorescence analysis using Alexa Fluor 633 Phalloidin. (A) Representative fluorescence microscopy showing bacterial colony (white dots) formed at the surface of the endothelial cells. (B) Quantification of the bacterial colonization was performed using Image J software.
HBMEC were grown on Thermanox coverslips coated with gelatin 2% for 2 days to reach confluency. Cells were then infected for 1 h with a GFP-expressing mutant Enteropathogenic Escherichia coli (EPEC), which lacks the ATPase escN. This strain is unable to translocate effector proteins and is more prone to form pilus-dependent microcolony at the host cell surface (Jensen et al., 2015). Cells were then washed three times with medium to remove non-adherent bacteria and infection was pursued for 1 extra hour, to allow bacterial growth at the endothelial cell surface to form microcolonies. Trifluoperazine was then added to obtain final concentrations of 10, 20, 30 and 50 μM. After incubation for 30 minutes, cells were washed and fixed in 4% Paraformaldehyde for 10 min, washed three times with PBS. […] Quantification was done with ImageJ software (NIH). […]

[4] = system: Nm2C4.3 colonization of human brain vessels; set-up: species or system Neisseria meningitidis; conditions: 40 μM for 30 min
[5] = system: HDMECs infected with N. meningitidis Nm2C4.3; test: Basement membrane (Gelatin-FITC matrix) degradation by infected endothelial cells; type: cell-based, human; conditions: 150 μg/ml Gentamicin, 24 h post-infection
Protocol: (A) Experimental procedure: HBMECs grown on a fluorescent matrix (Gelatin-Fitc) were colonized by N. meningitidis for 6 h. They were then treated with 150 μg/ml gentamicin for 1 h, then 15 min with Trifluoperazine (50 μM) (or solvent alone as control) and incubated for further 15 h in the presence of 150 μg/ml gentamicin. (B) Fluorescence microscopy was used to visualize cells stained with labelled phalloidin and the fluorescent matrix. The presence of dark zones corresponds to zones of matrix degradation. (C) Quantification of the percentage of matrix degradation, using Image J software.
Plastic coverslips (13 mm diameter) (Nalgen #174950) were washed in ethanol 70%, dried then coated with poly-L-lysine 1 mg/ml for 20 min at room temperature. After one wash in sterile PBS, 0.5% Glutaraldehyde was added for 15 min at room temperature. After three washes in PBS, Gelatin-FITC (0.2 mg/ml Invitrogen #G13187) was added for 10 minutes at room temperature in the dark. Coverslip were then washed with sterile PBS and treated with 5 mg/ml sodium borohydride for 3 min. After three washes in sterile PBS, 10^5 HDMECs (PromoCell #C-12210) were seeded per well in their PromoCell culture medium and incubated overnight at 37° C. 5% CO2. The day after, cells were infected with N. meningitidis Nm2C4.3, as above described. […] Quantifications were performed using ImageJ software (NIH).

SMILES | adhesion to and colony formation at the endothelial cell surface [1] | Ezrin recruitment and cortical actin polymerization at bacterial adhesion sites [2] | VE-cadherin staining / endothelial cell junction integrity [2] | bacterial colonies at the endothelial cell surface [2] | dispersion of EPEC microcolonies at the endothelial cell surface [3] | dispersal of meningococcal microcolonies in infected brain sections [4] | degradation of the basement membrane [5]
CN1CCN(CCCN2c3ccccc3Sc3ccc(C(F)(F)F)cc32)CC1 [Trifluoperazine] | did no longer adhere to and/or form bacterial colony | Few Ezrin recruitment | preserved endothelial cell junction integrity | induced their dispersion; also recorded: induced the dispersion of most of the bacterial colonies | induced the dispersion of these microbial colonies in a dose-dependent manner | induced the dispersal | –
CN[C@@H]1[C@@H](O)C(O[C@@H]2[C@@H](O)[C@H](O[C@H]3O[C@H]([C@@H](C)NC)CC[C@H]3N)[C@@H](N)C[C@H]2N)OC[C@]1(C)O (stereo partly drawn) [Gentamicin, (3R,4R,5R)-2-{[(1S,2S,3R,4S,6R)-4,6-diamino-3-{[(2R,3R,6S)-3-amino-6-[(1R)-1-(methylamino)ethyl]oxan-2-yl]oxy}-2-hydroxycyclohexyl]oxy}-5-methyl-4-(methylamino)oxane-3,5-diol] | – | still induced Ezrin recruitment, cortical actin polymerization | discontinuous distribution of VE-cadherin | reduced the number of colonies | – | – | about 20%
